Laboratory results reported in patent US8258311B2, “Human protein tyrosine phosphatase inhibitors and methods of use” (Aerpio Therapeutics Inc., priority 2006, dated 2012).

Experiments:
PTP1B = molecular target: T1, PTP1B (Homo sapiens, UniProt P18031); experiment: PTP1B inhibition (IC50); type: biochemical
T1 sequence (P18031 1-435): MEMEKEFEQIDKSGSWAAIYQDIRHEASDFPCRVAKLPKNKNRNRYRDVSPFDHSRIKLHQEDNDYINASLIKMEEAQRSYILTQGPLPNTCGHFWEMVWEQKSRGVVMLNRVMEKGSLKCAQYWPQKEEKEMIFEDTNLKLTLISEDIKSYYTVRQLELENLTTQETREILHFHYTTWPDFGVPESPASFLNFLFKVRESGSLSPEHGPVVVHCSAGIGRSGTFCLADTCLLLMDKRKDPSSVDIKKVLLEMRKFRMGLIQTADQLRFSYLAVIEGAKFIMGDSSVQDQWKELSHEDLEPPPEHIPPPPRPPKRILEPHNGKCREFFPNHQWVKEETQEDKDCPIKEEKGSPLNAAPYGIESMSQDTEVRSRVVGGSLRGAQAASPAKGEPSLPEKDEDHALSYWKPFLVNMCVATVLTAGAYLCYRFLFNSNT

HPTPβ = HPTPβ (Homo sapiens, UniProt P23467); experiment: HPTPβ inhibition (IC50); type: biochemical
Chain of HPTPβ (P23467 23-1997): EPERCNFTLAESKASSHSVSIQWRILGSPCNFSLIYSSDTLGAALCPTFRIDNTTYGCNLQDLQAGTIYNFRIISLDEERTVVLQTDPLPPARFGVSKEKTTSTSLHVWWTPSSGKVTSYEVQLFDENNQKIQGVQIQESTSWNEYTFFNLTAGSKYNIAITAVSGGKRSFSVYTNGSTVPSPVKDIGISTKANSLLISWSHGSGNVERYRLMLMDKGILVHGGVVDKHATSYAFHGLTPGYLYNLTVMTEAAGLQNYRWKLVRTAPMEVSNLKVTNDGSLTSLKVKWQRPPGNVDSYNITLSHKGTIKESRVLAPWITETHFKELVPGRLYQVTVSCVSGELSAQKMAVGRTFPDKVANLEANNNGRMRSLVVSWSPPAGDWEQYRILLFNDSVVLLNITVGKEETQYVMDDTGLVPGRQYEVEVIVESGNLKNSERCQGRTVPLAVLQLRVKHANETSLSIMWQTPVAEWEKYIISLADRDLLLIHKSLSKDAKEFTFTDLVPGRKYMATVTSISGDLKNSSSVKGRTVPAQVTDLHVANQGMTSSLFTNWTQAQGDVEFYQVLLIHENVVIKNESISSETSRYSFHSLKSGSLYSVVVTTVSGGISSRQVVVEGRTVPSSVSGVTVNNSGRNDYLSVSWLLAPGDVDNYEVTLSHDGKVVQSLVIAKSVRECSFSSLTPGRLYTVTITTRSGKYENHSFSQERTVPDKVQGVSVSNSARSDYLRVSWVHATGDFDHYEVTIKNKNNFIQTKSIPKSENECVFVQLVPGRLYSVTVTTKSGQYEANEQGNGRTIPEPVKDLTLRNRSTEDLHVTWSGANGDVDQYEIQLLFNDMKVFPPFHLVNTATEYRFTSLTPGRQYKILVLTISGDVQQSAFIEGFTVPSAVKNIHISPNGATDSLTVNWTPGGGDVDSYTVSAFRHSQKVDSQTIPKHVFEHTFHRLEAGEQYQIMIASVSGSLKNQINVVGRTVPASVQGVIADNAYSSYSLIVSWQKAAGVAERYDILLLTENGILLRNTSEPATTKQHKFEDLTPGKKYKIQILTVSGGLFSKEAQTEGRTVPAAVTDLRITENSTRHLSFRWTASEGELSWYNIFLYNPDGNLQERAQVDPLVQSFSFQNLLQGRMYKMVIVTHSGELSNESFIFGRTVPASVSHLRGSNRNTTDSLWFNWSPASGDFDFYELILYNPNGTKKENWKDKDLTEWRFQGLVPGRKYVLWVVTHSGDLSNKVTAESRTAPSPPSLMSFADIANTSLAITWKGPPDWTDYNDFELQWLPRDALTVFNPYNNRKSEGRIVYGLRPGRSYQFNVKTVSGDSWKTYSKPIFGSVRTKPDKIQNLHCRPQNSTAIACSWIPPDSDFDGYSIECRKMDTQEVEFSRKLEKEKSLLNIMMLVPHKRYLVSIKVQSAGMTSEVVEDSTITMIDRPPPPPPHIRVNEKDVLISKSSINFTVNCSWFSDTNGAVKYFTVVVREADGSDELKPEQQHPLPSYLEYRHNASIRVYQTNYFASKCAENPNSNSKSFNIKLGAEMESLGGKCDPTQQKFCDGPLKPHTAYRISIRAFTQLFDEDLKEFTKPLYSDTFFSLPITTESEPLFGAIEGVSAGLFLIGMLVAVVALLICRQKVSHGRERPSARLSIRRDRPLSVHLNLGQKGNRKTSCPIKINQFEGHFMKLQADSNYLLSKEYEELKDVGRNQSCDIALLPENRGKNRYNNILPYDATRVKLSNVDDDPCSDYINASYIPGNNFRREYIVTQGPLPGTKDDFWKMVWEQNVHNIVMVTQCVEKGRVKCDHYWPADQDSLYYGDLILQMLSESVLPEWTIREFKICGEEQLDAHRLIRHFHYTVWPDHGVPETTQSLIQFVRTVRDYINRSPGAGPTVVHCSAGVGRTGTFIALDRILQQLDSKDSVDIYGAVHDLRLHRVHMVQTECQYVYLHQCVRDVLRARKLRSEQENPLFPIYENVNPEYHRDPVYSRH

SMILES | IC50 (PTP1B) | IC50 (HPTPβ)
Cc1nc([C@H](Cc2ccc(NS(=O)(=O)O)cc2)NC(=O)OC(C)(C)C)cs1 | 18900 nM | 33 nM
CCc1nc([C@H](Cc2ccc(NS(=O)(=O)O)cc2)NC(=O)[C@H](Cc2ccccc2)NC(=O)OC)sc1C [4-{(S)-2-(4-Ethyl-5-methylthiazol-2-yl)-2-[(S)-2-(methoxy-carbonylamino)-3-phenyl-propanamido]ethyl}phenylsulfamic acid] | 1120 nM | 0.1 nM
CC(C)(C)OC(=O)N[C@@H](Cc1ccc(NS(=O)(=O)O)cc1)c1nc(C(C)(C)C)cs1 [(S)-4-(2-(tert-Butoxycarbonylamino)-2-(4-tert-butylthiazol-2-yl)ethyl)phenyl sulfamic acid] | 50000 nM | 27 nM
COc1ccc(-c2csc([C@H](Cc3ccc(NS(=O)(=O)O)cc3)NC(=O)C(C)(C)C)n2)c(OC)c1 [4-((S)-2-(4-(2,4-Dimethoxyphenyl)thiazol-2-yl)-2-pivalamidoethyl)phenyl-sulfamic acid] | 43100 nM | 86 nM
COC(=O)N[C@@H](Cc1ccccc1)C(=O)N[C@@H](Cc1ccc(NS(=O)(=O)O)cc1)c1nc2c(s1)CCC2 [4-{(S)-2-(5,6-Dihydro-4H-cyclopenta[d]thiazol-2-yl)-2-[(S)-2-(methoxycarbonylamino)-3-phenylpropanamido]ethyl}phenylsulfamic acid] | 180 nM | 1 nM
COCc1csc([C@H](Cc2ccc(NS(=O)(=O)O)cc2)NC(=O)OC(C)(C)C)n1 [(S)-4-(2-(tert-Butoxycarbonylamino)-2-(4-(methoxymethyl)thiazol-2-yl)ethyl)-phenyl sulfamic acid] | 27600 nM | 180 nM
CCc1csc([C@H](Cc2ccc(NS(=O)(=O)O)cc2)NC(=O)CNC(=O)OC(C)(C)C)n1 [(S)-4-{2-[2-(tert-Butoxycarbonylamino)acetamido]-2-(4-ethylthiazol-2-yl)ethyl}phenylsulfamic acid] | 16000 nM | 28 nM
CCc1csc([C@H](Cc2ccc(NS(=O)(=O)O)cc2)NC(=O)[C@H](Cc2ccccc2)NC(C)=O)n1 [4-[(S)-2-((S)-2-Acetamido-3-phenylpropanamido)-2-(4-ethylthiazol-2-yl)ethyl]phenylsulfamic acid] | 1970 nM | 1 nM
COC(=O)N[C@@H](Cc1ccccc1)C(=O)N[C@@H](Cc1ccc(NS(=O)(=O)O)cc1)c1nc(C(C)(C)C)cs1 [4-{(S)-2-(4-tert-Butylthiazol-2-yl)-2-[(S)-2-(methoxycarbonylamino)-3-phenylpropanamido]ethyl}phenylsulfamic acid] | 708 nM | 0.2 nM
CC(C)(C)OC(=O)N[C@@H](Cc1ccc(NS(=O)(=O)O)cc1)c1ncc(-c2ccccc2)s1 [(S)-4-(2-(tert-Butoxycarbonylamino)-2-(5-phenylthiazol-2-yl)ethyl)-phenyl sulfamic acid] | 11400 nM | 308 nM
COC(=O)N[C@@H](Cc1ccccc1)C(=O)N[C@@H](Cc1ccc(NS(=O)(=O)O)cc1)c1nc(C)c(C)s1 [4-{(S)-2-(4,5-Dimethylthiazol-2-yl)-2-[(S)-2-(methoxycarbonylamino)-3-phenyl-propanamido]ethyl}phenylsulfamic acid] | 310 nM | 1 nM
COc1cccc(-c2csc([C@H](Cc3ccc(NS(=O)(=O)O)cc3)NC(=O)C(C)(C)C)n2)c1 [4-((S)-2-(4-(3-Methoxyphenyl)thiazol-2-yl)-2-pivalamidoethyl)phenylsulfamic acid] | 40100 nM | 110 nM
CCc1csc([C@H](Cc2ccc(NS(=O)(=O)O)cc2)NC(=O)[C@H](CC(C)C)NC(=O)OC)n1 [4-{(S)-2-(4-Ethylthiazol-2-yl)-2-[(S)-2-(methoxycarbonylamino)-4-methylpentanamido]ethyl}phenylsulfamic acid] | 70 nM | 0.3 nM
CC(C)(C)OC(=O)N[C@@H](Cc1ccc(NS(=O)(=O)O)cc1)c1nc(-c2ccsc2)cs1 [4-((S)-2-(tert-Butoxycarbonylamino)-2-(4-(thiophen-3-yl)thiazol-2-yl)ethyl)phenyl sulfamic acid] | 14600 nM | 45 nM
COC(=O)N[C@@H](Cc1ccccc1)C(=O)N[C@@H](Cc1ccc(NS(=O)(=O)O)cc1)c1csc(C2CC2)n1 [4-{(S)-2-(2-Cyclopropylthiazol-4-yl)-2-[(S)-2-(methoxy-carbonylamino)-3-phenylpropanamido]ethyl}phenylsulfamic acid] | 1350 nM | 0.2 nM

More lines, now with the values ahead:

IC50 (PTP1B) | IC50 (HPTPβ) | SMILES
28600 nM | 381 nM | CC(C)(C)C(=O)N[C@@H](Cc1ccc(NS(=O)(=O)O)cc1)c1nc(-c2ccc(-c3ccccc3)cc2)cs1 [(S)-4-(2-(4-(Biphen-4-yl)thiazol-2-yl)-2-pivalamidoethyl)phenylsulfamic acid]
1030 nM | 0.1 nM | CCCc1csc([C@H](Cc2ccc(NS(=O)(=O)O)cc2)NC(=O)[C@H](Cc2ccccc2)NC(=O)OC)n1 [4-{(S)-2-[(S)-2-(Methoxycarbonylamino)-3-phenylpropanamido]-2-(4-propylthiazol-2-yl)ethyl}phenylsulfamic acid]
295 nM | 3 nM | COC(=O)N[C@@H](Cc1ccccc1)C(=O)N[C@@H](Cc1ccc(NS(=O)(=O)O)cc1)c1csc(-c2cnccn2)n1 [4-{(S)-2-[(S)-2-(Methoxycarbonylamino)-3-phenylpropanamido]-2-[2-(pyrazin-2-yl)thiazol-4-yl]ethyl}phenylsulfamic acid]
440 nM | 0.09 nM | COC(=O)N[C@@H](Cc1ccccc1)C(=O)N[C@@H](Cc1ccc(NS(=O)(=O)O)cc1)c1nc(-c2ccsc2)cs1 [4-{(S)-2-[(S)-2-(Methoxycarbonylamino)-3-phenylpropanamido]-2-[4-(thiophen-3-yl)thiazol-2-yl]ethyl}phenylsulfamic acid]
142000 nM | 85 nM | CCc1csc([C@H](Cc2ccc(NS(=O)(=O)O)cc2)NC(=O)C(C)(C)C)n1 [(S)-4-(2-(4-Ethylthiazol-2-yl)-2-pivalamidoethyl)phenyl-sulfamic acid]
44900 nM | 584 nM | CCOC(=O)c1csc([C@H](Cc2ccc(NS(=O)(=O)O)cc2)NC(=O)C(C)(C)C)n1 [(S)-4-{[2-(4-Ethoxycarbonyl)thiazol-2-yl]-2-pivalamidoethyl}phenylsulfamic acid]
1160 nM | 1 nM | COC(=O)N[C@@H](Cc1ccccc1)C(=O)N[C@@H](Cc1ccc(NS(=O)(=O)O)cc1)c1csc(C)n1 [4-{(S)-2-[(S)-2-(Methoxycarbonylamino)-3-phenylpropanamido]-2-(2-methylthiazol-4-yl)ethyl}phenylsulfamic acid]
38200 nM | 113 nM | CC(C)(C)C(=O)N[C@@H](Cc1ccc(NS(=O)(=O)O)cc1)c1nc(Cc2ccccc2)cs1 [(S)-4-(2-(4-Benzylthiazol-2-yl)-2-pivalamidoethyl)phenylsulfamic acid]
89 nM | 0.4 nM | COC(=O)N[C@@H](Cc1ccccc1)C(=O)N[C@@H](Cc1ccc(NS(=O)(=O)O)cc1)c1nc2c(s1)CCCC2 [4-{(S)-2-[(S)-2-(Methoxycarbonylamino)-3-phenylpropanamido]-2-(4,5,6,7-tetrahydrobenzo[d]thiazol-2-yl)ethyl}phenylsulfamic acid]
82300 nM | 42 nM | CC(C)(C)C(=O)N[C@@H](Cc1ccc(NS(=O)(=O)O)cc1)c1nc(-c2ccccc2)cs1 [(S)-4-(2-(4-Phenylthiazol-2-yl)-2-pivalamidoethyl)phenylsulfamic acid]
1010 nM | 0.1 nM | CCc1nc([C@H](Cc2ccc(NS(=O)(=O)O)cc2)NC(=O)[C@H](Cc2ccccc2)NC(=O)OC)cs1 [4-{(S)-2-[(S)-2-(Methoxycarbonylamino)-3-phenylpropanamido]-2-(2-ethylthiazol-4-yl)ethyl}phenylsulfamic acid]
722 nM | 0.157 nM | CCc1csc([C@H](Cc2ccc(NS(=O)(=O)O)cc2)NC(=O)Cc2ccccc2)n1 [(S)-{4-[2-(4-Ethylthiazol-2-yl)-2-(phenylacetylamino)ethyl]-phenyl}sulfamic acid]
50500 nM | 98 nM | Cc1sc([C@H](Cc2ccc(NS(=O)(=O)O)cc2)NC(=O)C(C)(C)C)nc1-c1ccccc1 [(S)-4-(2-(5-Methyl-4-phenylthiazol-2-yl)-2-pivalamidoethyl)phenylsulfamic acid]
1160 nM | 0.24 nM | CC(=O)N[C@@H](Cc1ccccc1)C(=O)N[C@@H](Cc1ccc(NS(=O)(=O)O)cc1)c1nc(-c2ccsc2)cs1 [4-{(S)-2-((S)-2-Acetamido-3-phenylpropanamido)-2-[4-(thiophen-3-yl)thiazol-2-yl]ethyl}phenylsulfamic acid]
1630 nM | 0.3 nM | COC(=O)N[C@@H](Cc1ccccc1)C(=O)N[C@@H](Cc1ccc(NS(=O)(=O)O)cc1)c1nc(CC(F)(F)F)cs1 [4-{(S)-2-[(S)-2-(Methoxycarbonylamino)-3-phenylpropanamido]-2-[4-(2,2,2-trifluoroethyl)thiazol-2-yl]ethyl}phenylsulfamic acid]
680 nM | 0.14 nM | CCOC(=O)N[C@@H](Cc1ccccc1)C(=O)N[C@@H](Cc1ccc(NS(=O)(=O)O)cc1)c1nc(CC)cs1 [4-{(S)-2-[(S)-2-(Ethoxycarbonylamino)-3-phenylpropanamido]-2-(4-ethylthiazol-2-yl)ethyl}phenylsulfamic acid]
50000 nM | 266 nM | CC(C)(C)C(=O)N[C@@H](Cc1ccc(NS(=O)(=O)O)cc1)c1nc(CO)cs1 [(S)-4-{2-[4-(hydroxymethyl)thiazol-2-yl]-2-pivalamidoethyl}phenyl-sulfamic acid]
